Measurements reported in ChEMBL document CHEMBL3286294, “Buthionine sulfoximine diverts the melanogenesis pathway toward the production of more soluble and degradable pigments” (Bioorg Med Chem Lett, 2014).
Calls of active or inactive are those of the source. The calls are words filed in the database; no cut-off is given here.

Experiments:
[1] = molecular target: T1, Tyrosinase (Agaricus bisporus) (UniProt O42713); assay: Induction of eumelanogenesis assessed as mushroom tyrosinase-mediated simulation of eumelanogenesis by measuring oxidation of L-DOPA at 4.5 to 184.4 mM after 48 hrs by Vis-spectrophotometer analysis in absence of glutathione
T1 sequence (whole entry): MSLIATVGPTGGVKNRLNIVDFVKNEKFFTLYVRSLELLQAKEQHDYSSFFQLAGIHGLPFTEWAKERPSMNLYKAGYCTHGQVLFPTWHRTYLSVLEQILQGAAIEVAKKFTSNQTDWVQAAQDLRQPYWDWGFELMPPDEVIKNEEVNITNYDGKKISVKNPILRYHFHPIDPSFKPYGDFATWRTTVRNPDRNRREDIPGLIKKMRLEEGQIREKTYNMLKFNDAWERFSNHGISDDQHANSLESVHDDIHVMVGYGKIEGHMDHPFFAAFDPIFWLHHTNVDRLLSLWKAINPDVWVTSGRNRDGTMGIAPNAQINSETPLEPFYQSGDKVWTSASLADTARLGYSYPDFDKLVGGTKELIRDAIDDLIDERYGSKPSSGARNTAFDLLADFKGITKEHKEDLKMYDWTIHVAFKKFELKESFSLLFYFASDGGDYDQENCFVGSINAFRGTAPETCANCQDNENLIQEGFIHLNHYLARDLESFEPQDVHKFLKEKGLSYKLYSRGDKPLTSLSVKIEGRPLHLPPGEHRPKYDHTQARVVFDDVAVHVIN

[2] = molecular target: T1, Tyrosinase (Agaricus bisporus); assay: Induction of eumelanogenesis assessed as mushroom tyrosinase-mediated simulation of eumelanogenesis by measuring oxidation of L-DOPA at 4.5 to 184.4 mM after 48 hrs by Vis-spectrophotometer analysis in absence of glutathione and presence of H2O2
[3] = molecular target: T1, Tyrosinase (Agaricus bisporus); assay: Induction of pheomelanogenesis assessed as mushroom tyrosinase-mediated simulation of pheomelanogenesis by measuring oxidation of L-DOPA at 4.5 to 184.4 mM after 48 hrs by Vis-spectrophotometer analysis in presence of 0.65 to 3.2 mM of glutathione
[4] = molecular target: T1, Tyrosinase (Agaricus bisporus); assay: Inhibition of mushroom tyrosinase-mediated simulation of pheomelanogenesis assessed as oxidation of L-DOPA at 4.5 to 184.4 mM after 48 hrs by Vis-spectrophotometer analysis in presence of 16.3 to 81.3 mM of glutathione
[5] = molecular target: T1, Tyrosinase (Agaricus bisporus); assay: Induction of pheomelanogenesis assessed as mushroom tyrosinase-mediated simulation of pheomelanogenesis by measuring oxidation of L-DOPA at 4.5 to 184.4 mM after 48 hrs by Vis-spectrophotometer analysis in presence of 0.65 to 3.2 mM of glutathione and H2O2

Activity [1]: Active
Activity [2]: Active
Activity [3]: Active
inhibition [4]: Active
Activity [5]: Active
Structure (SMILES): CCCCS(=N)(=O)CCC(N)C(=O)O (racemic)
